Melting point data for 86 compounds are collected here from patent publication US9572813B2, “Antiviral agent” (SHIONOGI & CO., LTD., priority 2001, dated 2017).

Structures are written as SMILES.

A word on the melting point: it is the temperature of the solid-liquid transition.

Regarding `CN1CC(C(=O)c2cnn(Cc3ccc(F)cc3)c2)=C(O)C1=O`, the melting point was in the range of 150 to 151 °C. With `CC(C)N1CC(C(=O)c2cnn(Cc3ccc(F)cc3)c2)=C(O)C1=O` the figure was 129.5 to 131 °C; with `CC(C)N1CC(C(=O)c2cnc(Cc3ccc(F)cc3)o2)=C(O)C1=O`, 174 to 178 °C. With `CN1CC(C(=O)c2nc(Cc3ccc(F)cc3)co2)=C(O)C1=O` the figure was 209 to 210 °C; with `CN1CC(C(=O)c2cc(Cc3ccc(F)cc3)co2)=C(O)C1=O`, 143 to 145 °C; with `COc1cc(F)ccc1Cc1ccc(C(=O)C2=C(O)C(=O)N(C)C2)o1`, 134 to 135 °C. With `COc1cc(Cc2ccc(C(=O)C3=C(O)C(=O)N(C(C)C)C3)o2)ccc1F` the figure was 160 to 161 °C; with `COc1cc(Cc2ccc(C(=O)C3=C(O)C(=O)N(C)C3)o2)ccc1F`, 164 to 166 °C. In the case of `CC(C)N1CC(C(=O)c2ccc(Cc3ccccc3)o2)=C(O)C1=O`, the melting point lay within 162 to 163 °C. `CN1CC(C(=O)c2ccc(Cc3ccccc3)o2)=C(O)C1=O` yielded a melting point of 116 to 118 °C. The compound `CN1CC(C(=O)c2oc(C3CCCCC3)cc2Cc2ccc(F)cc2)=C(O)C1=O` came in with a melting point of 175 to 176 °C. `CCC(CC)N1CC(C(=O)c2ccc(Cc3ccc(F)cc3)o2)=C(O)C1=O` had a melting point of 140 to 141 °C. `CN1CC(C(=O)c2cc(C(=O)O)c(Cc3ccc(F)cc3)o2)=C(O)C1=O`: the melting point is 255 to 258 °C (dec.). With `CCNC(=O)c1cc(C(=O)C2=C(O)C(=O)N(C)C2)oc1Cc1ccc(F)cc1` the figure was 169 to 170 °C. With `CN1CC(C(=O)c2cc(C(=O)NCc3ccccc3)c(Cc3ccc(F)cc3)o2)=C(O)C1=O` the figure was 181 to 184 °C; with `CC(C)N1C(=O)C(O)=C(C(=O)c2ccc(Cc3ccc(F)cc3)o2)C1C` (centres unmarked), 120 to 122 °C.

As for `C=CCN1CC(C(=O)c2ccc(Cc3ccc(F)cc3)o2)=C(O)C1=O`, the melting point lay within 95 to 96.5 °C.

For `O=C(C1=C(O)C(=O)N(Cc2ccccc2)C1)c1ccc(Cc2ccc(F)cc2)o1`, the melting point was 129 to 130 °C.

The compound `CCC(O)CN1CC(C(=O)c2ccc(Cc3ccc(F)cc3)o2)=C(O)C1=O` (centres unmarked) showed a melting point of 132 to 133 °C.

For `CCCC(O)CN1CC(C(=O)c2ccc(Cc3ccc(F)cc3)o2)=C(O)C1=O` (centres unmarked), the melting point is 171 °C. `O=C(C1=C(O)C(=O)N(CC(O)CO)C1)c1ccc(Cc2ccc(F)cc2)o1` (centres unmarked) had a melting point of 119 to 120 °C. With `CN1CC(C(=O)c2ccoc2Cc2ccc(F)cc2)=C(O)C1=O` the figure was 171 to 172 °C; with `O=C(C1=C(O)C(=O)N(CCO)C1)c1occc1Cc1ccc(F)cc1`, 195 to 196 °C. With `COCCN1CC(C(=O)c2occc2Cc2ccc(F)cc2)=C(O)C1=O` the figure was 170 °C. With `CCN1CC(C(=O)c2occc2Cc2ccc(F)cc2)=C(O)C1=O` the figure was 167 °C; with `O=C(C1=C(O)C(=O)N(CC(O)CO)C1)c1occc1Cc1ccc(F)cc1` (centres unmarked), 208 to 210 °C. With `Cc1cc(Cc2ccc(F)cc2)c(C(=O)C2=C(O)C(=O)N(C)C2)o1`, the melting point lay within 154 to 156 °C.

The compound `Cc1cc(Cc2ccc(F)cc2)c(C(=O)C2=C(O)C(=O)N(C(C)C)C2)o1` registered a melting point of 125 to 127 °C.

`CN1CC(C(=O)c2oc(Cc3ccc(F)cc3)cc2Cc2ccc(F)cc2)=C(O)C1=O` showed a melting point of 157 to 160 °C. With `CC(C)N1CC(C(=O)c2oc(Cc3ccc(F)cc3)cc2Cc2ccc(F)cc2)=C(O)C1=O` the figure was 159 to 161 °C; with `CN1CC(C(=O)c2oc(C(C)(C)C)cc2Cc2ccc(F)cc2)=C(O)C1=O`, 179 to 181 °C. As to `Cc1ccc(-c2cc(Cc3ccc(F)cc3)c(C(=O)C3=C(O)C(=O)N(C)C3)o2)cc1`, the melting point fell in the range of 242 to 245 °C. With `CC(C)(C)c1cc(Cc2ccc(F)cc2)c(C(=O)C2=C(O)C(=O)N(C3CC3)C2)o1`, the melting point is 148 to 150 °C. `Cc1nc(C(=O)C2=C(O)C(=O)N(C)C2)c(Cc2ccc(F)cc2)o1` gave a melting point of 170 °C. With `CC(C)N1CC(C(=O)c2cn(Cc3ccc(F)cc3)cn2)=C(O)C1=O` the figure was 224 to 226 °C; with `CC(C)N1CC(C(=O)c2cncn2Cc2ccc(F)cc2)=C(O)C1=O`, 156 to 159 °C. With `CN1CC(C(=O)c2ccc(Cc3ccc(F)cc3)[nH]2)=C(O)C1=O` the figure was 221 to 223 °C. For the compound `CN1CC(C(=O)c2c[nH]cc2Cc2ccc(F)cc2)=C(O)C1=O`, the melting point was 265 to 267 °C. `CN1CC(c2cnc(Cc3ccc(F)cc3)cn2)=C(O)C1=O` registered a melting point of 223 to 225 °C. Take `CC(C)N1CC(c2cnc(Cc3ccc(F)cc3)cn2)=C(O)C1=O`: the melting point lay in the range of 207 to 209 °C. With `CN1CC(c2ncnc(OCc3ccc(F)cc3)n2)=C(O)C1=O` the figure was 169 to 171 °C. With `CN1CC(c2ncc(CCc3ccc(F)cc3)s2)=C(O)C1=O` the figure was 214 to 216 °C; with `CN1CC(c2ncc(Cc3ccc(F)cc3)s2)=C(O)C1=O`, 222 to 224 °C.

`CC(C)N1CC(c2ncc(Cc3ccc(F)cc3)s2)=C(O)C1=O` came in with a melting point of 212 to 214 °C.

For the compound `CC(C)c1ccccc1COc1cc(C2=C(O)C(=O)N(C)C2)ncn1`, the melting point lay within 240 to 241 °C. With `CN1CC(c2cc(CCc3ccc(F)cc3)ncn2)=C(O)C1=O` the figure was 225 to 228 °C. With `CN1CC(c2cc(C(Cc3ccc(F)cc3)Cc3ccc(F)cc3)ncn2)=C(O)C1=O` the figure was 162 to 164 °C. With `CC(C)N1CC(c2cc(C(Cc3ccc(F)cc3)Cc3ccc(F)cc3)ncn2)=C(O)C1=O` the figure was 181 to 183 °C. `CN1CC(c2ccc(Oc3ccccc3)cn2)=C(O)C1=O` gave a melting point of 200 to 202 °C. The compound `CC(C)N1CC(c2ccc(Oc3ccccc3)cn2)=C(O)C1=O` returned a melting point of 181 to 183 °C. With `CN1CC(c2ccc(Oc3ccc(F)cc3)cn2)=C(O)C1=O` the figure was 229 to 230 °C. `CC(C)N1CC(c2ccc(Oc3ccc(F)cc3)cn2)=C(O)C1=O` gave a melting point of 178 to 179 °C. With `CN1CC(c2ccc([S+]([O-])c3ccc(F)cc3)cn2)=C(O)C1=O` (centres unmarked) the figure was 228 to 230 °C.

`CN1CC(c2ncc(Cc3ccc(F)cc3)cn2)=C(O)C1=O` returned a melting point of 163 to 165 °C.

In the case of `CN1CC(c2ncc(Oc3ccccc3)cn2)=C(O)C1=O`, the melting point lay within 207 to 208 °C.

In the case of `CN1CC(c2ncc(Oc3ccc(F)cc3)cn2)=C(O)C1=O`, the melting point was 230 to 232 °C. With `CCC(CC)N1CC(c2cc(CCc3ccccc3)ncn2)=C(O)C1=O` the figure was 182 to 183 °C. In turn, `CC(C)N1CC(c2ncc(OCc3ccc(F)cc3)cn2)=C(O)C1=O` registered a melting point of 219 to 221 °C. With `CN1CC(c2nccc(CCc3ccccc3)n2)=C(O)C1=O` the figure was 118 to 119 °C.

Consider `CC(C)N1CC(c2nccc(CCc3ccccc3)n2)=C(O)C1=O`, for which the melting point fell in the range of 126 to 127 °C.

In turn, `CN1CC(c2ccc(Oc3ccccc3)nn2)=C(O)C1=O` returned a melting point of 220 to 225 °C. Regarding `CC(C)N1CC(c2ccc(Oc3ccccc3)nn2)=C(O)C1=O`, the melting point lay within 203 to 205 °C. With `CC(C)N1CC(c2ccc(Oc3ccc(F)cc3)nn2)=C(O)C1=O` the figure was 204 to 206 °C; with `CN1CC(c2cc(CCc3ccccc3)cnn2)=C(O)C1=O`, 203 to 205 °C; with `CN1CC(c2cnc(Oc3ccccc3)cn2)=C(O)C1=O`, 233 to 235 °C. With `CC(C)N1CC(c2cnc(Oc3ccccc3)cn2)=C(O)C1=O` the figure was 216 to 217 °C.

`CC(C)N1CC(c2cnc(Oc3ccc(F)cc3)cn2)=C(O)C1=O` showed a melting point of 227 to 229 °C. Compound `CCOC(=O)c1oc2ccc(OCc3ccc(F)cc3)cc2c(=O)c1O` displayed a melting point of 190 to 192 °C. In turn, `Cn1cnc(-c2oc3cccc(OCc4ccc(F)cc4)c3c(=O)c2O)n1` yielded a melting point of 264 to 266 °C. Compound `O=c1c(O)c(-c2nc[nH]n2)oc2cccc(OCc3ccc(F)cc3)c12` gave a melting point of 254 to 256 °C.

`O=c1c(O)c(-c2ncccn2)oc2cccc(OCc3ccc(F)cc3)c12`: the melting point is 252 to 254 °C. With `Cn1ncnc1-c1oc2cccc(CCc3ccc(F)cc3)c2c(=O)c1O` the figure was 192 to 193 °C; with `O=c1c(O)c(-c2ncn(Cc3ccc(F)cc3)n2)oc2ccccc12`, 260 to 262 °C; with `O=C(NCc1ccc(F)cc1)c1oc2ccccc2c(=O)c1O`, 235 to 236 °C. Consider `O=C(c1ccc(Cc2ccc(F)cc2)o1)c1oc2ccccc2c(=O)c1O`, for which the melting point lay within 226 to 227 °C. `Cn1c(-c2nnc(Cc3ccc(F)cc3)o2)c(O)c(=O)c2ccccc21` displayed a melting point of 222 °C. With `COCc1cc(=O)c(O)c(C(=O)c2ccc(Cc3ccc(F)cc3)o2)o1` the figure was 147 to 148 °C; with `COC(=O)c1cc(=O)c(O)c(C(=O)c2ccc(Cc3ccc(F)cc3)o2)o1`, 174 to 176 °C; with `O=C(c1ccc(Cc2ccc(F)cc2)o1)c1oc(C(=O)N2CCCCC2)cc(=O)c1O`, 146 to 148 °C.

Take `N#Cc1cc(=O)c(O)c(C(=O)c2ccc(Cc3ccc(F)cc3)o2)o1`: the melting point is 190 to 194 °C (dec.). With `O=C(c1ccc(Cc2ccc(F)cc2)o1)c1occ(Br)c(=O)c1O` the figure was 191 to 192 °C. With `Cc1nc(=O)c(O)c(-c2ccc(Oc3ccc(F)cc3)cn2)[nH]1` the figure was 255 to 256 °C; with `Cc1nc(=O)c(O)c(-c2nnc(Cc3ccc(F)cc3)o2)[nH]1`, 283 to 286 °C; with `Cn1c(C(=O)c2ccc(Cc3ccc(F)cc3)o2)c(O)c(=O)n1C`, 110 to 111 °C. With `O=C1NCCC(C(=O)c2ccc(Cc3ccc(F)cc3)o2)=C1O` the figure was 166 to 168 °C; with `O=C(c1ccc(Cc2ccc(F)cc2)o1)c1cc[nH]c(=O)c1O`, 229 to 231 °C.
